In brackets after ≈: the same amount, converted by molar mass.
Tests used:
[1] = The cytotoxic activity was evaluated in MDBK cells; format: functional; settings: Bos taurus
[2] = Tested for activity against A/WSN/33 influenza strain-induced toxicity in MDBK cells by using cell protection assay; format: functional, organism-based
[3] = Tested for activity against A/WSN/33 influenza strain-induced toxicity in MDBK cells by using cell protection assay; Not active; format: functional, organism-based
[4] = The compound was tested for activity against A/WSN/33 influenza strain-induced toxicity in MDBK cells by using cell protection assay; Not active at 50 ug/mL; format: functional, cell-based, Bos taurus

Row | SMILES | CC50 [1] [µg/mL] | EC50 [2] [µg/mL] | EC50 [3] | EC50 [4]
1 | O=C(NCCCN1CCC[C@@H]2CCCC[C@@H]21)c1cc(Cl)ccc1O | 43 (≈ 123 µM) | 1.4 (≈ 3.99 µM) |  | 
2 | C[C@@H]1CCC[C@H](C)N1CCCNC(=O)c1cc(Cl)ccc1O | 30 (≈ 92.3 µM) | 4.5 (≈ 13.9 µM) |  | 
3 | Cc1ccc(O)c(C(=O)NCCCN2CCC(C)[C@@H]3CCCC[C@@H]32)c1 (some centres undefined) | 100 (≈ 290 µM) |  | Not Active | 
4 | C[C@@H]1CCC[C@H](C)N1CCCCNC(=O)c1cc(Cl)ccc1O | 100 (≈ 295 µM) | 1 (≈ 2.95 µM) |  | 
5 | Cc1ccc(O)c(C(=O)NCCCN2CCC[C@@H]3CCCC[C@@H]32)c1 | > 100 | 0.65 (≈ 1.97 µM) |  | 
6 | CN1C2CCC1CC(NC(=O)c1cc(Cl)ccc1O)C2 (centres undefined) | 100 (≈ 339 µM) |  | Not Active | 
7 | Cc1ccc(O)c(C(=O)NCCCN2C(C(C)C)CC[C@@H]3CCCC[C@@H]32)c1 (some centres undefined) | 80 (≈ 215 µM) | 0.25 (≈ 0.671 µM) |  | 
8 | Cc1ccc(O)c(C(=O)NCCCN2[C@H](C)CC[C@@H]3CCCC[C@@H]32)c1 | 35 (≈ 102 µM) | 0.19 (≈ 0.552 µM) |  | 
9 | Cc1ccc(O)c(C(=O)NC2CC3CCC(C2)N3C)c1 (centres undefined) | 100 (≈ 364 µM) |  | Not Active | 
10 | Cc1ccc(O)c(C(=O)NCCCN2CC(C)C[C@@H]3CCCC[C@@H]32)c1 (some centres undefined) | 9.5 (≈ 27.6 µM) |  | Not Active | 
11 | C[C@@H]1CCC[C@@H]2C[C@@H](NC(=O)c3cc(Cl)ccc3O)CCN21 | > 200 | 0.8 (≈ 2.48 µM) |  | 
12 | Cc1ccc(O)c(C(=O)NCCCCN2CCC[C@@H]3CCCC[C@@H]32)c1 | 30 (≈ 87.1 µM) |  | Not Active | 
13 | CCC(C)N1CCC(NC(=O)c2cc(C)ccc2O)CC1 (centres undefined) | 100 (≈ 344 µM) |  |  | Not Active
14 | Cc1ccc(O)c(C(=O)NCCCN2CCC[C@@H]3CCCC[C@H]32)c1 | 60 (≈ 182 µM) | 0.35 (≈ 1.06 µM) |  | 
15 | Cc1ccc(O)c(C(=O)NCCCN2C(C)CC[C@@H]3CCCC[C@H]32)c1 (single isomer, unassigned) | 30 (≈ 87.1 µM) | 1.5 (≈ 4.35 µM) |  | 
16 | Cc1ccc(O)c(C(=O)NCCCCN2[C@H](C)CCC[C@@H]2C)c1 | > 100 | 0.7 (≈ 2.2 µM) |  | 
17 | CC1CC[C@@H]2CCCC[C@@H]2N1CCCNC(=O)c1cc(Cl)ccc1O (some centres undefined) | 40 (≈ 110 µM) | 0.09 (≈ 0.247 µM) |  | 
18 | Cc1ccc(O)c(C(=O)NCCCN2[C@H](C)CCC[C@@H]2C)c1 | > 100 | 1.8 (≈ 5.91 µM) |  | 
19 | Cc1ccc(O)c(C(=O)NCCCCN2C(C)CC[C@@H]3CCCC[C@@H]32)c1 (some centres undefined) | 90 (≈ 251 µM) |  | Not Active | 
20 | O=C(NCCCN1CCC[C@@H]2CCCC[C@H]21)c1cc(Cl)ccc1O | 45 (≈ 128 µM) | 1.4 (≈ 3.99 µM) |  | 
21 | Cc1ccc(O)c(C(=O)NCCCN2[C@@H](C)CC[C@@H]3CCCC[C@@H]32)c1 | > 100 | 6 (≈ 17.4 µM) |  | 
22 | Cc1ccc(O)c(C(=O)NCCCN(C(C)C)C(C)C)c1 | > 100 | 0.9 (≈ 3.08 µM) |  | 

Reference: ChEMBL document CHEMBL1133031, “Salicylamide inhibitors of influenza virus fusion” (Bioorg Med Chem Lett, 2000)
